This is an account of results in PubChem BioAssay (NCI).

The structures appear in SMILES notation.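 Tested at 5 concentrations; 48 h exposure; 96-well plates; endpoints linearly interpolated, else capped at highest concentration. At the GI50, growth is halved. At the TGI there is no net growth.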 A value given as a limit tells only on which side of the number the result lay.

Common to all, as to assay: NCI anticancer screen, dose series, 48 h
Assay [1] has as its system PC-3 prostate.
Assay [2] has as its system MDA-MB-231 breast.
In assay [3] the test system is A549 NSCLC.
In assay [4] the test system is OVCAR-5 ovarian.
The test system of assay [5] is COLO 205 colon.
Assay [6] deals with LOX IMVI melanoma.
Assay [7] deals with HS 578T breast.
The subject of assay [8] is A498 renal.
Assay [9] relates to T-47D breast.
Assay [10] relates to U251 CNS.

As for `C=C1CC[C@@H]2[C@](C)(COC(C)=O)[C@H](OC(C)=O)CC[C@@]2(C)[C@@H]1CC(Nc1ccc(S(=O)(=O)Nc2nccs2)cc1)C1=CCOC1=O` (stereo partly drawn), the GI50 in [1] was 7.74 µM; in [2] it was 3.31 µM; in [3], 3.67 µM; in assay [4], 4.82 µM; in assay [5] it was 3.14 µM; in assay [6] it was 1.59 µM. For the same compound, the GI50 in assay [7] was 10.8 µM; in assay [8], 18.2 µM; in [9] it was 3.39 µM; in [10] it was 1.86 µM. Besides, the TGI in assay [1] stood at 21.5 µM; in assay [2], 8.25 µM; in assay [3], 11.2 µM; in assay [4] it was 17.6 µM; in assay [5], 10.5 µM; in assay [6], 3.31 µM. Further, the TGI in assay [7] stood at 60.4 µM; in assay [8], 32.6 µM; in [9], 20.8 µM; in assay [10], 3.5 µM.

With `COc1cc(C2CC(=O)Nc3c2cc(Br)c2ccccc32)cc(Br)c1OC` (stereo not drawn), the GI50 in assay [1] was 2.62 µM; in [2] it was 2.66 µM; in [4], 3.02 µM; in [5] it was 2.06 µM; in assay [6] it was 1.65 µM; in assay [7], 1.78 µM. The GI50 in [8] was 1 µM; in assay [9] it was 1.61 µM; in assay [10] it was 1.42 µM. Also, the TGI in assay [1] is more than 100 µM; in assay [2], 7.42 µM; in [4] it was more than 100 µM; in assay [5], more than 100 µM; in assay [6] it was more than 100 µM; in assay [7], more than 54.2 µM. In addition, the TGI came to 3.29 µM in [8], 5.26 µM in assay [9] and 3.7 µM in assay [10].

On to `Nc1cc2cccc[n+]2c2cccc(Cl)c12`, for which the GI50 in assay [2] is 17 µM; in assay [3], 30.9 µM; in assay [5] it was 15.5 µM; in [7] it was 21.9 µM; in assay [9], 9.86 µM; in [10] it was 6.36 µM. For the same compound, the TGI in assay [7] was 60.2 µM; in [10], 33.8 µM.

As for `COc1ccc2c(c1)C(=O)c1c-2n(CCCN)c(=O)c2cc([N+](=O)[O-])ccc12`, the GI50 in [1] was less than 0.01 µM; in [2] it was 0.1 µM; in assay [4] it was less than 0.01 µM; in assay [6], less than 0.01 µM; in assay [7], 1.81 µM; in assay [8], less than 0.01 µM. In addition, the GI50 in assay [9] and in assay [10] was less than 0.01 µM each time. Further, the TGI in assay [1] was 1.79 µM; in assay [2], 0.227 µM; in assay [4], less than 0.01 µM; in assay [6] it was less than 0.01 µM; in assay [7] it was 4.44 µM; in assay [8], less than 0.01 µM. This compound also returned a TGI in assay [9] of 1.86 µM.

With `Cc1oc2c(c1C(=O)N1CC[C@@H](N)C1)C(=O)c1c(c(O)c3ccccc3c1O)C2=O`, the GI50 in assay [1] is 1.98 µM; in [2], 2.26 µM; in assay [4], 5.2 µM; in assay [5], 0.643 µM; in assay [6], 1.1 µM; in [7] it was 5.23 µM. In addition, the GI50 was 3.38 µM in [8], 0.863 µM in assay [9] and 1.27 µM in [10]. In addition, the TGI in assay [1] was found to be 10.9 µM; in assay [2] it was 9.06 µM; in [4], 18.9 µM; in [5] it was 1.97 µM; in [6], 3.96 µM; in assay [7], 22.6 µM. Besides, the TGI in assay [8] came out at 18.9 µM; in assay [9] it was 7.86 µM; in [10], 9.27 µM.

As to `COc1ccc2c(c1)/C(=C\c1c[nH]c3ccc(OC)cc13)C(=O)N2`, the GI50 in [1] is 3.84 µM; in [2], 1.97 µM; in assay [4], 3.43 µM; in assay [5], 2.89 µM; in assay [6] it was 3.25 µM; in assay [7] it was 2.33 µM. In addition, the GI50 in assay [8] is 1.82 µM; in assay [9], 2.99 µM. The TGI in [1] is 16.3 µM; in assay [2], 6.32 µM; in [4], 13.2 µM; in [5], 9.84 µM; in [6] it was 13.6 µM; in assay [7], 7.66 µM. The results for the TGI in assay [8] and in assay [9] were 6.47 µM and 13.4 µM, respectively.

Turning to `NCCC(=O)NC(Cc1cnc[nH]1)C(=O)O` (stereo not drawn), the TGI in assay [1], in [2], in [3], in [4], in [5] and in [6] was more than 100 µM each time. For the same compound, the TGI in [7], in assay [9] and in assay [10] was more than 100 µM each time.

For the compound `N/C(=N\c1nc2ccccc2s1)NC(=NC1CCCCC1)NC1CCCCC1`, the GI50 in [1] was 1.52 µM; in assay [4], 1.62 µM; in assay [5] it was 1.7 µM; in assay [6], 1.61 µM; in assay [7], 1.77 µM; in assay [8], 1.71 µM. Further, the GI50 in [9] is 1.84 µM; in [10] it was 1.68 µM. The TGI in assay [1] came to 3.33 µM; in assay [4] it was 3.07 µM; in [5] it was 3.6 µM; in [6], 2.99 µM; in assay [7], 3.89 µM; in [8], 3.11 µM. For the same compound, the TGI in [9] worked out at 4.15 µM; in [10] it was 3.48 µM.

Consider `CC(=O)OC(C)C(OC(C)=O)C(OC(C)=O)C(/C=C/C1CC=CC(=O)O1)OC(C)=O` (stereo not drawn), for which the GI50 in [1] is 73.2 µM; in assay [2], 21.8 µM; in assay [4] it was 82.8 µM; in [5], 22 µM; in assay [6], 29.1 µM; in [7], 12.4 µM. In addition, the GI50 was 16.9 µM in assay [8], 27.3 µM in assay [9] and 30.7 µM in assay [10]. Also, the TGI is more than 100 µM in [1]; 53.6 µM in assay [2]; more than 100 µM in assay [4]; 64.6 µM in assay [5]; more than 100 µM in assay [6]; 33.1 µM in [7]. The TGI in [8] is 45.3 µM; in [9] it was 80.1 µM; in assay [10], more than 100 µM.
